Entries after “also recorded” stand apart in the source; their conditions may differ.
What was measured:
[1] = test system: zebrafish model of intestinal mucosal injury; assay: Efficacy in relieving colitis: intestinal lumen area in TNBS-treated zebrafish; assay type: in vivo; settings: for Intestinal lumen area (pixels, mean ± SE): 2 days after TNBS, n = 10
In short: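 TNBS in water for 2 days at 28 °C in 3 dpf wild-type AB zebrafish, then test polypeptide in water for 2 days at 28 °C at 250, 500 or 1000 μg/mL; later rounds used 1000 μg/mL. Prednisone control at 15.0 μg/mL. Intestinal lumen area imaged in 10 fish/group, mean±SE.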

[2] = test system: TNBS-induced model of acute inflammatory bowel disease (UC) in SD rat; assay: TNBS-induced model of acute inflammatory bowel disease (UC) in SD rat; assay type: in vivo
Description: In this experiment, a rat model of ulcerative colitis was established by administering trinitrobenzene sulfonic acid (TNBS) to laboratory animal male SD rats for a single enema intervention. Acute colitis in rats induced by trinitrobenzene sulfonic acid (TNBS) is an immune response induced by cytokines secreted by Th1 type cells. […] This model is simple to establish and has good reproducibility. It is an experimental animal model widely used in evaluating drugs for the treatment of inflammatory bowel disease. […] During the experimental treatment period (D1-D14), the body weight and general clinical observation indicators (including but not limited to food intake, water intake, activity level and defecation, etc.) of the animals in each experimental group were dynamically collected. At the same time, based on the relevant scoring standards for the disease activity index of ulcerative colitis, the reactivity such as the weight loss degree, stool morphology and trait, and bloody stool of the animals in each experimental group after TNBS induction were scored, and the disease activity index (DAI) of ulcerative colitis was calculated, once a day for 14 consecutive days. At the end point of the experiment, colon tissues of animals in each experimental group were collected, and the length and weight of the colon were measured and then the non-autopsy images were collected. Then the colon was cut open along the intestinal wall longitudinally and autopsy images were collected. Based on the “Criteria for Scoring Gross Morphological Manifestations of the Colon”, the gross damage with respect to colon adhesions, colon ulcers and inflammation of animals in each experimental group was observed and scored. Ulcer images were collected under a stereomicroscope and the area of colon ulcer foci was calculated, followed by routine fixation.

[3] = D 0-D 14, compound 12: 0.8 mg/kg, mesalazine: 30.0 mg/kg, enema once a day 14 days, mean ± SD
[4] = D 14, compound 12: 0.8 mg/kg, mesalazine: 30.0 mg/kg, enema once a day 14 days, mean ± SD
[5] = experimental endpoint, compound 12: 0.8 mg/kg, mesalazine: 30.0 mg/kg, enema once a day 14 days, mean ± SD
[6] = set treatment regimen, enema once a day 14 days, vs model control group
[7] = set treatment regimen, experimental endpoint, vs model control group

**Q.** Which “Intestinal lumen area (pixels, mean ± SE)” value ([1]; 250 μg/mL in water) does the source give for “Pro-Val-Pro-Gln (PVPQ; printed: Pro-Val-Pro-Gln) [Compound 12]” here?
**A.** 48857 ± 5649 pixels

**Q.** What about the “Intestinal lumen area (pixels, mean ± SE)” value ([1]; 500 μg/mL in water) of the same substance?
**A.** 43802 ± 3228 pixels

**Q.** And the “Intestinal lumen area (pixels, mean ± SE)” value ([1]; 1000 μg/mL in water)?
**A.** 26727 ± 2106 pixels

**Q.** What about the “Activity in relieving intestinal lumen dilatation” value ([1]; 1000 μg/mL, significance vs model control group of the same batch) of the same substance?
**A.** ** (** p < 0.01)

**Q.** What about the “Intestinal lumen area compared with the model control group (in words)” value ([1]; 250, 500, 1000 μg/mL, Table 4) of the same substance?
**A.** significant statistical differences compared with the model control group

**Q.** What about the “Body weight, Grouping day (D 0, g)” value ([2]; D 0, before treatment, compound 12: 0.8 mg/kg, mesalazine: 30.0 mg/kg, enema once a day, mean ± SD) of the same substance?
**A.** 276.36 ± 7.47 g

**Q.** And the “DAI score AUC(0-14 d) (D 0-D 14)” value [2, 3]?
**A.** 46.40 ± 3.68

**Q.** What about the “Weight change range (D 0-D 14, %)” value [2, 3] of the same substance?
**A.** −1.52 ± 12.20%

**Q.** And the “DAI score, Experimental day 1 (D 1, point)” value ([2]; D 1, compound 12: 0.8 mg/kg, mesalazine: 30.0 mg/kg, enema once a day, mean ± SD)?
**A.** 4.1 ± 0.6 point

**Q.** And the “DAI score, Experimental day 3 (D 3, point)” value ([2]; D 3, compound 12: 0.8 mg/kg, mesalazine: 30.0 mg/kg, enema once a day, mean ± SD)?
**A.** 4.9 ± 1.0 point

**Q.** What about the “Body weight, Experimental day 5 (D 5, g)” value ([2]; D 5, compound 12: 0.8 mg/kg, mesalazine: 30.0 mg/kg, enema once a day, mean ± SD) of the same substance?
**A.** 244.90 ± 21.75 g

**Q.** What about the “Body weight, Experimental endpoint (D 14, g)” value [2, 4] of the same substance?
**A.** 272.00 ± 33.21 g

**Q.** What about the “DAI score, Experimental endpoint (D 14, point)” value [2, 4] of the same substance?
**A.** 1.4 ± 1.8 point

**Q.** And the “Colon length (cm)” value [2, 5]?
**A.** 13.74 ± 1.97 cm

**Q.** And the “Colon ulcer and inflammation score (point)” value [2, 5]?
**A.** 2.30 ± 0.82 point

**Q.** What about the “Colon ulcer area (cm^2)” value [2, 5] of the same substance?
**A.** 3.79 ± 1.63^# cm^2

**Q.** And the “Colon weight” value [2, 5]?
**A.** 2.10 ± 0.19 g

**Q.** And the “Colon weight/length ratio (100* g/cm)” value [2, 5]?
**A.** 15.68 ± 3.14# 100* g/cm

**Q.** And the “Colonic adhesion score (point)” value [2, 5]?
**A.** 1.20 ± 0.63 point

**Q.** And the “Overall therapeutic effect in the rat model of ulcerative colitis (in words)” value ([2]; set treatment regimen)?
**A.** significant therapeutic effects

**Q.** What about the “Effect on disease progression of ulcerative colitis / DAI scores (in words)” value [2, 6] of the same substance?
**A.** significant improvement effect on the disease progression of ulcerative colitis

**Q.** What about the “Effect on weight gain inhibition / weight loss response of model animals (in words)” value [2, 6] of the same substance?
**A.** no obvious improved therapeutic effect; also recorded: did not show a significant weight improvement effect

**Q.** And the “Effect on colon atrophy process / colon weight/length ratio (in words)” value [2, 7]?
**A.** colon weight/length ratio was significantly decreased

**Q.** And the “Effect on gross colon injury status (colonic adhesion, ulcer and inflammation) and colon ulcer area (in words)” value [2, 7]?
**A.** obvious therapeutic effects; also recorded: significant therapeutic effects on the gross damage manifestation of the colon

Source: patent publication US20250101063A1, “POLYPEPTIDE COMPOUND AND USE THEREOF IN TREATMENT OF ENTERITIS” (Sichuan Gooddoctor Panxi Pharmaceutical Co., Ltd., priority 2022, published 2025)
